# In patent publication US11478471B2, “Methods and compositions for treating diabetes, metabolic syndrome and other conditions” (priority 2005, dated 2022):
# How the values were obtained:
# Candida parapsilosis = test: Antifungal MIC; assay type: cell-based; conditions: Lodderomyces parapsilosis
# plasma corticosterone = test: Plasma corticosterone in rats after oral dosing (ELISA); assay type: in vivo, Sprague Dawley rats; conditions: for Corticosteroid Levels (mean ± SEM): 4 h after gavage
# Experimental: To generate the results shown in FIG. 1, five groups (eight per group) of rats were used. The rats were maintained on a 14/10 hour light/dark cycle and allowed free access to food and water. Each rat was dosed (200 mg drug/kg body weight) via a gastric tube. […] All of the rats were dosed between 2.00 and 3.00 pm and were sacrificed four hours later (between 6.00 and 7.00 pm). Plasma was prepared and the concentration of corticosterone determined by an enzyme linked immuno assay (ELISA). In rats, the predominant active glucocorticoid is corticosterone; in humans, the predominant active glucucorticoid is the closely related molecule cortisol.
# The rats were maintained and dosed as described above. Plasma was prepared and the concentration of corticosterone in the plasma determined by ELISA.
# (§1) The rats were maintained as described above; the drugs were suspended in olive oil, and each rat was dosed once via gastric tube to achieve a dose of 200 mg/kg. All of the rats were dosed at a specific time so that all terminations occurred between 6 and 7 pm. […] Following sacrifice, plasma was prepared, and the concentration of corticosterone in the plasma was determined by ELISA. In the same plasma samples, total cholesterol levels were also determined.
# In the Table, corticosterone levels (mean±SEM; ng/mL) were determined four hours after oral gavage of the indicated drug (N=10/group). There was a single control group (dosed with vehicle).
# Corticosterone levels (mean±SEM; ng/mL) were determined at the indicated times after oral gavage of the indicated drug at 200 mg/kg. […] The means of the vehicle treated groups are used as the time zero control point.
# Candida kefyr = test: Antifungal MIC; assay type: cell-based; conditions: Kluyveromyces marxianus, DSM11954; DSM strain 11954, 48 h
# Candida albicans = test: Antifungal MIC; assay type: cell-based
# [1] = Toxicokinetics in the 28 day dog study of DIO-902 (with racemic ketoconazole group a); conditions: beagle, plasma, dogs; for concentration at 0 h / concentration at 1 h / concentration at 2 h / concentration at 4 h / concentration at 8 h / concentration at 12 h: Drug concentration in plasma; for AUC(0-t): AUC(0-12); for Tmax: Tmax Range;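 for all read-outs here: beagle dogs dosed orally once daily within a 28-day GLP study, 3 animals per sex per group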
# Cryptococcus neoformans = test: Antifungal MIC; assay type: cell-based
# Candida glabrata = test: Antifungal MIC; assay type: cell-based; conditions: Nakaseomyces glabratus
# Issatchenkia orientalis = test: Antifungal MIC; assay type: cell-based; conditions: Pichia kudriavzevii
# Candida tropicalis = test: Antifungal MIC; assay type: cell-based
# Saccharomyces cerevisiae = test: Antifungal MIC; assay type: cell-based; conditions: DSM01333, DSM strain 01333, 48 h
# cholesterol levels = test: Cholesterol levels in rats after oral dosing; assay type: in vivo, Sprague Dawley rats; conditions: for Cholesterol Levels (mean ± SEM): single oral 200 mg/kg
# Experimental: as §1
# [2] = female, oral, 20 mg/kg, group a: 20 mg/kg oral (after 40 mg/kg days 1-9, pause), day 28, F
# [3] = female, po, 20 mg/kg, group a: 20 mg/kg oral (after 40 mg/kg days 1-9, pause), day 28, F
# [4] = female, po, 40 mg/kg, group a: 40 mg/kg oral, day 1, F
# [5] = male, oral, 20 mg/kg, group a: 20 mg/kg oral (after 40 mg/kg days 1-9, pause), day 28, M
# [6] = male, po, 20 mg/kg, group a: 20 mg/kg oral (after 40 mg/kg days 1-9, pause), day 28, M
# [7] = male, po, 40 mg/kg, group a: 40 mg/kg oral, day 1, M
smiles,measurement,setting,value
"CC(=O)N1CCN(c2ccc(OCC3COC(Cn4ccnc4)(c4ccc(Cl)cc4Cl)O3)cc2)CC1 (racemic) [Racemic ketoconazole, 1-acetyl-4-[4-[[2-(2,4-dichlorophenyl)-2-[(1H-imidazol-1-yl)-methyl]-1,3-dioxolan-4-yl]methoxy]phenyl]piperazine]",MIC,"Candida parapsilosis; DSM05784, 48 h",0.03 µg/mL
same,MIC,"Candida parapsilosis; DSM11224, 48 h",< 0.015 µg/mL
same,"efficacy at lowering corticosterone, time course (FIG. 3)","plasma corticosterone; 200 mg/kg oral, up to 24 hours",intermediate between the two enantiomers
same,Corticosteroid Levels (mean ± SEM),plasma corticosterone; single oral 50 mg/kg,215 ± 20.7 ng/mL
same,Corticosteroid Levels (mean ± SEM),plasma corticosterone; single oral 100 mg/kg,210 ± 15.5 ng/mL
same,"Corticosteroid Levels (mean ± SEM), time course","plasma corticosterone; single oral 200 mg/kg, 4 h",134 ± 10 ng/mL
same,Corticosteroid Levels (mean ± SEM),plasma corticosterone; single oral 200 mg/kg,135 ± 13.7 ng/mL
same,"Corticosteroid Levels (mean ± SEM), time course","plasma corticosterone; single oral 200 mg/kg, 8 h",163 ± 11 ng/mL
same,"Corticosteroid Levels (mean ± SEM), time course","plasma corticosterone; single oral 200 mg/kg, 12 h",153 ± 14 ng/mL
same,"Corticosteroid Levels (mean ± SEM), time course","plasma corticosterone; single oral 200 mg/kg, 16 h",132 ± 6 ng/mL
same,"Corticosteroid Levels (mean ± SEM), time course","plasma corticosterone; single oral 200 mg/kg, 20 h",147 ± 17 ng/mL
same,"Corticosteroid Levels (mean ± SEM), time course","plasma corticosterone; single oral 200 mg/kg, 24 h",151 ± 14 ng/mL
same,Corticosteroid Levels (mean ± SEM),plasma corticosterone; single oral 400 mg/kg,113 ± 6.6 ng/mL
same,Corticosteroid Levels (mean ± SEM),plasma corticosterone; single oral 600 mg/kg,115 ± 14.3 ng/mL
same,MIC,Candida kefyr,0.03 µg/mL
same,MIC,Candida albicans; 48 h,< 0.015 µg/mL
same,MIC,"Candida albicans; DSM11225, 48 h",< 0.015 µg/mL
same,MIC,"Candida albicans; DSM11943, 48 h",< 0.015 µg/mL
same,MIC,"Candida albicans; DSM11944, 48 h",< 0.015 µg/mL
same,MIC,"Candida albicans; DSM11945, 48 h",0.03 µg/mL
same,MIC,"Candida albicans; DSM11948, 48 h",< 0.015 µg/mL
same,MIC,"Candida albicans; DSM11949, 48 h",0.125 µg/mL
same,concentration at 0 h,[1]; [2],< 250 ng/mL
same,concentration at 1 h,[1]; [2],< 250 ng/mL
same,concentration at 2 h,[1]; [2],270 ng/mL
same,concentration at 4 h,[1]; [2],350 ng/mL
same,concentration at 8 h,[1]; [2],310 ng/mL
same,concentration at 12 h,[1]; [2],< 250 ng/mL
same,AUC(0-t),"[1]; female, po, 20 mg/kg, group a: 20 mg/kg oral (after 40 mg/kg days 1-9, pause), day 28, F, n = 1",4700 ng·h/mL
same,Cmax,[1]; [3],550 ng/mL
same,Tmax,[1]; [3],2 to 8 h
same,AUC(0-t),[1]; [4],185000 ng·h/mL
same,Cmax,[1]; [4],21300 ng/mL
same,concentration at 0 h,[1]; [4],< 250 ng/mL
same,concentration at 1 h,[1]; [4],4290 ng/mL
same,concentration at 2 h,[1]; [4],12300 ng/mL
same,concentration at 4 h,[1]; [4],20100 ng/mL
same,concentration at 8 h,[1]; [4],18300 ng/mL
same,concentration at 12 h,[1]; [4],14800 ng/mL
same,Tmax,[1]; [4],4 to 8 h
same,concentration at 0 h,[1]; [5],< 250 ng/mL
same,concentration at 1 h,[1]; [5],< 250 ng/mL
same,concentration at 2 h,[1]; [5],280 ng/mL
same,concentration at 4 h,[1]; [5],< 250 ng/mL
same,concentration at 8 h,[1]; [5],< 250 ng/mL
same,concentration at 12 h,[1]; [5],< 250 ng/mL
same,AUC(0-t),"[1]; male, po, 20 mg/kg, group a: 20 mg/kg oral (after 40 mg/kg days 1-9, pause), day 28, M, n = 1",3420 ng·h/mL
same,Cmax,[1]; [6],510 ng/mL
same,Tmax,[1]; [6],1 to 8 h
same,AUC(0-t),[1]; [7],143000 ng·h/mL
same,Cmax,[1]; [7],16600 ng/mL
same,concentration at 0 h,[1]; [7],< 250 ng/mL
same,concentration at 1 h,[1]; [7],5600 ng/mL
same,concentration at 2 h,[1]; [7],8870 ng/mL
same,concentration at 4 h,[1]; [7],10800 ng/mL
same,concentration at 8 h,[1]; [7],16600 ng/mL
same,concentration at 12 h,[1]; [7],12800 ng/mL
same,Tmax,[1]; [7],8 h
same,MIC,"Cryptococcus neoformans; DSM11959, DSM strain 11959, 48 h",0.06 µg/mL
same,MIC,"Cryptococcus neoformans; DSM11960, DSM strain 11960, 48 h",0.125 µg/mL
same,MIC,"Candida glabrata; DSM11226, 48 h",0.5 µg/mL
same,MIC,"Candida glabrata; DSM11950, 48 h",0.25 µg/mL
same,MIC,"Issatchenkia orientalis; DSM11956, 48 h",0.25 µg/mL
same,MIC,"Issatchenkia orientalis; DSM11958, 48 h",1 µg/mL
same,MIC,"Candida tropicalis; DSM11951, 48 h",0.125 µg/mL
same,MIC,"Candida tropicalis; DSM11952, 48 h",4 µg/mL
same,MIC,"Candida tropicalis; DSM11953, 48 h",0.06 µg/mL
same,MIC,Saccharomyces cerevisiae,0.25 µg/mL
same,efficacy at lowering cholesterol,"cholesterol levels; 200 mg/kg oral, up to 24 hours",intermediate between the two enantiomers
same,Cholesterol Levels (mean ± SEM),cholesterol levels; 4 h,81.2 ± 3.9 mg/dL
same,Cholesterol Levels (mean ± SEM),cholesterol levels; 8 h,73.5 ± 2.3 mg/dL
same,Cholesterol Levels (mean ± SEM),cholesterol levels; 12 h,69.6 ± 2.3 mg/dL
same,Cholesterol Levels (mean ± SEM),cholesterol levels; 16 h,69.6 ± 3.1 mg/dL
